Measurements taken from patent US8946203B2, “Benzodioxane inhibitors of leukotriene production” (Boehringer Ingelheim International GmbH, priority 2012, dated 2015).

molecular target: T1, human LTA4 hydrolase (Homo sapiens, UniProt P09960); assay: LTA4H Enzyme assay (cleavage of Arg-AMC, fluorescence); format: biochemical; conditions: LTA4H Enzyme 1 nM, Arg-AMC substrate 50 μM, room temperature 1 h, fluorescence; read-out: IC50 values of LTA4H Enzyme assay
T1 sequence (P09960 1-611): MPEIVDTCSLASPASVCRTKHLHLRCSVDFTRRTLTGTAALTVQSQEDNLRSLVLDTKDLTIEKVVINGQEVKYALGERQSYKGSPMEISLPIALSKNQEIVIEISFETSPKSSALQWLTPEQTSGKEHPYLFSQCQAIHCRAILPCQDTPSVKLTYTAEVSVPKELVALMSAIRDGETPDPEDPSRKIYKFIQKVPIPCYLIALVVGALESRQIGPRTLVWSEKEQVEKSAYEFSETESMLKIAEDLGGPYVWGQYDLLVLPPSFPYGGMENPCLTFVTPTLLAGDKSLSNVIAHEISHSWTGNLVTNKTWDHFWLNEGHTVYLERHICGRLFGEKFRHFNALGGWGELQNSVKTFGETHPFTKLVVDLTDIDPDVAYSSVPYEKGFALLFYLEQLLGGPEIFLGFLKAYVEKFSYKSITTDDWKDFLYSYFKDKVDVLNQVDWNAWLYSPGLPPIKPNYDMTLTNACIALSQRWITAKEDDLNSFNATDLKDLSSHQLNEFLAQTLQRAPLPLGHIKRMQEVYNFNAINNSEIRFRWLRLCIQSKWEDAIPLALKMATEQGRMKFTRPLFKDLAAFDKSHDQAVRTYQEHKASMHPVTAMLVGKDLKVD
Outline: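 Peptidase activity of human LTA4H (1 nM final) on Arg-AMC (50 μM final), with compound, 1 h at room temperature. Buffer: 50 mM Tris-HCl pH 7.5, 100 mM KCl, 0.5% BSA.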

IC50 [nM] | SMILES
0.47 | O=C(O)[C@@H]1CCN(Cc2ccc([C@H]3COc4ccccc4O3)cc2)C1 [Example 214, (3R)-1-{4-[(2S)-2,3-dihydro-1,4-benzodioxin-2-yl]benzyl}pyrrolidine-3-carboxylic acid]
1.88 | CC(C)NCc1ccc([C@H]2COc3ccccc3O2)cc1 [Example 71, N-{4-[(2S)-2,3-dihydro-1,4-benzodioxin-2-yl]benzyl}propan-2-amine]
0.43 | OC1CCN(Cc2ccc([C@H]3COc4ccccc4O3)cc2)CC1 (single isomer, unassigned) [Example 192]
5.2 | CC(C)(C)NCc1ccc(C2COc3ccccc3O2)cc1 (racemic) [Example 23, N-[4-(2,3-dihydro-1,4-benzodioxin-2-yl)benzyl]-2-methylpropan-2-amine]
2.57 | CC1(C)CCN(Cc2ccc(C3COc4ccccc4O3)cc2)CC1 (racemic) [Example 3, 1-[4-(2,3-dihydro-1,4-benzodioxin-2-yl)benzyl]-4,4-dimethylpiperidine]
2.25 | Oc1ccc(CNCc2ccc([C@H]3COc4ccccc4O3)cc2)cc1 [Example 111, 4-[({4-[(2S)-2,3-dihydro-1,4-benzodioxin-2-yl]benzyl}amino)methyl]phenol]
2.28 | c1ccc2c(c1)OC[C@H](c1ccc(CN3CCOCC3)cc1)O2 (single isomer, unassigned) [Example 198]
0.54 | O[C@H]1CCN(Cc2ccc([C@H]3COc4ccccc4O3)cc2)C1 [Example 91, (3S)-1-{4-[(2S)-2,3-dihydro-1,4-benzodioxin-2-yl]benzyl}pyrrolidin-3-ol]
0.2 | CC(=O)NC1CCN(Cc2ccc([C@H]3COc4ccccc4O3)cc2)C1 (stereo partly drawn) [Example 82, N-(1-{4-[(2S)-2,3-dihydro-1,4-benzodioxin-2-yl]benzyl}pyrrolidin-3-yl)acetamide]
0.16 | CS(=O)(=O)NC1CCN(Cc2ccc(C3COc4ccccc4O3)cc2)CC1 (racemic) [Example 48, N-{1-[4-(2,3-dihydro-1,4-benzodioxin-2-yl)benzyl]piperidin-4-yl}methanesulfonamide]
1.73 | O=C1CCN(Cc2ccc([C@H]3COc4ccccc4O3)cc2)CCN1 [Example 131, 1-{4-[(2S)-2,3-dihydro-1,4-benzodioxin-2-yl]benzyl}-1,4-diazepan-5-one]
2.96 | FC1CCN(Cc2ccc(C3COc4ccccc4O3)cc2)CC1 (racemic) [Example 5, 1-[4-(2,3-dihydro-1,4-benzodioxin-2-yl)benzyl]-4-fluoropiperidine]
2.45 | c1ccc2c(c1)OCC(c1ccc(CN3CCOCC3)cc1)O2 (racemic) [Example 2, 4-[4-(2,3-dihydro-1,4-benzodioxin-2-yl)benzyl]morpholine]
2.32 | c1ccc2c(c1)OCC(c1ccc(CN3CCn4cnnc4C3)cc1)O2 (racemic) [Example 16, 7-[4-(2,3-dihydro-1,4-benzodioxin-2-yl)benzyl]-5,6,7,8-tetrahydro[1,2,4]triazolo[4,3-a]pyrazine]
1 | CCN(C)Cc1ccc([C@H]2COc3ccccc3O2)cc1 [Example 74, N-{4-[(2S)-2,3-dihydro-1,4-benzodioxin-2-yl]benzyl}-N-methylethanamine]
2.49 | O=C(O)C1CCCN(Cc2ccc(C3COc4ccccc4O3)cc2)C1 (racemic) [Example 113, 1-[4-(2,3-dihydro-1,4-benzodioxin-2-yl)benzyl]piperidine-3-carboxylic acid]

Continued, molecule first:

SMILES | IC50 [nM]
CC(=O)N1CCN(Cc2ccc([C@H]3COc4cccnc4O3)cc2)CC1 [Example 185, 1-(4-{4-[(3S)-2,3-dihydro[1,4]dioxin[2,3-b]pyridin-3-yl]benzyl}piperazin-1-yl)ethanone] | 0.59
CC(=O)N[C@H]1C[C@H]2CC[C@@H](C1)N2Cc1ccc([C@H]2COc3cccnc3O2)cc1 [Example 278, N-{(endo)-8-[(S)-4-(2,3-Dihydro-[1,4]dioxino[2,3-b]pyridin-3-yl)-benzyl]-8-aza-bicyclo[3.2.1]oct-3-yl}-acetamide] | 0.26
OC1(c2ccccc2)CCN(Cc2ccc([C@H]3COc4cccnc4O3)cc2)CC1 [Example 269, 1-[(S)-4-(2,3-Dihydro-[1,4]dioxino[2,3-b]pyridin-3-yl)-benzyl]-4-phenyl-piperidin-4-ol] | 0.2
CC(C)(O)CNC(=O)[C@H]1[C@@H]2CN(Cc3ccc([C@H]4COc5cccnc5O4)cc3)C[C@@H]21 [Example 251, [(1α,5α,6α)-3-[(S)-4-(2,3-Dihydro-[1,4]dioxino[2,3-b]pyridin-3-yl)-benzyl]-3-aza-bicyclo[3.1.0]hexane-6-carboxylic acid (2-hydroxy-2-methyl-propyl)]-amide] | 0.16
CN(Cc1ccc([C@H]2COc3cccnc3O2)cc1)C1CCS(=O)(=O)C1 (stereo partly drawn) [Example 280, [(S)-4-(2,3-Dihydro-[1,4]dioxino[2,3-b]pyridin-3-yl)-benzyl]-(1,1-dioxo-tetrahydro-1lambda-6-thiophen-3-yl)-methyl-amine] | 2.4
CS(=O)(=O)N1CCCC12CCN(Cc1ccc([C@H]3COc4ccccc4O3)cc1)C2 (stereo partly drawn) [Example 122, 7-{4-[(2S)-2,3-dihydro-1,4-benzodioxin-2-yl]benzyl}-1-(methylsulfonyl)-1,7-diazaspiro[4.4]nonane] | 0.91
O=C1CCCN1Cc1ccc(C2COc3cccnc3O2)cc1 (stereo not shown) [Example 208, 11-[4-(2,3-dihydro-[1,4]dioxino[2,3-b]pyridin-3-yl)-benzyl]-pyrrolidin-2-one] | 21.4
OC(C1CCN(Cc2ccc([C@H]3COc4ccccc4O3)cc2)CC1)(C(F)(F)F)C(F)(F)F [Example 22, 2-(1-{4-[(2S)-2,3-dihydro-1,4-benzodioxin-2-yl]benzyl}piperidin-4-yl)-1,1,1,3,3,3-hexafluoropropan-2-ol] | 200
O[C@H]1CCN(Cc2ccc([C@H]3COc4cccnc4O3)cc2)C1 [Example 147, (3S)-1-{4-[(3S)-2,3-dihydro[1,4]dioxino[2,3-b]pyridin-3-yl]benzyl}pyrrolidin-3-ol] | 0.35
CC(C)(CN1CCCC1)NCc1ccc([C@H]2COc3cccnc3O2)cc1 [Example 157, N-{4-[(3S)-2,3-dihydro[1,4]dioxino[2,3-b]pyridin-3-yl]benzyl}-2-methyl-1-(pyrrolidin-1-yl)propan-2-amine] | 0.18
O=C(NCCO)C1CCN(Cc2ccc([C@H]3COc4ccccc4O3)cc2)CC1 [Example 96, 1-{4-[(2S)-2,3-dihydro-1,4-benzodioxin-2-yl]benzyl}-N-(2-hydroxyethyl)piperidine-4-carboxamide] | 0.22
O=C(O)C1(F)CCN(Cc2ccc([C@H]3COc4ccccc4O3)cc2)CC1 [Example 213, 1-{4-[(2S)-2,3-dihydro-1,4-benzodioxin-2-yl]benzyl}-4-fluoropiperidine-4-carboxylic acid] | 0.81
Fc1ccc2c(c1)OC(c1ccc(CN3CCOCC3)cc1)CO2 (stereo not shown) [Example 202, 4-[4-(7-Fluoro-2,3-dihydro-benzo[1,4]dioxin-2-yl)-benzyl]-morpholine] | 23.4
OCC1CCN(Cc2ccc([C@H]3COc4cccnc4O3)cc2)CC1 [Example 146, (1-{4-[(3S)-2,3-dihydro[1,4]dioxino[2,3-b]pyridin-3-yl]benzyl}piperidin-4-yl)methanol] | 0.29
CN1CCCN(Cc2ccc([C@H]3COc4cccnc4O3)cc2)CC1 [Example 143, (3S)-3-{4-[(4-methyl-1,4-diazepan-1-yl)methyl]phenyl}-2,3-dihydro[1,4]dioxino[2,3-b]pyridine] | 0.3
OCCCC1CCN(Cc2ccc([C@H]3COc4cccnc4O3)cc2)CC1 [Example 149, 3-(1-{4-[(3S)-2,3-dihydro[1,4]dioxino[2,3-b]pyridin-3-yl]benzyl}piperidin-4-yl)propan-1-ol] | 0.24
O=C(O)C1CN(Cc2ccc([C@H]3COc4ccccc4O3)cc2)Cc2ccccc21 (stereo partly drawn) [Example 56, 2-{4-[(2S)-2,3-dihydro-1,4-benzodioxin-2-yl]benzyl}-1,2,3,4-tetrahydroisoquinoline-4-carboxylic acid] | 6.08
O=C(O)c1ccc2c(c1)CN(Cc1ccc([C@H]3COc4ccccc4O3)cc1)CC2 [Example 232, 2-{4-[(2S)-2,3-dihydro-1,4-benzodioxin-2-yl]benzyl}-1,2,3,4-tetrahydroisoquinoline-7-carboxylic acid] | 2.75

tested on: synthesis of LTB4 in human whole blood; assay: human whole blood (HWB) assay, LTB4 production inhibition after calcimycin stimulation; format: cell-based; conditions: heparinized human whole blood, calcimycin 20 μM, plasma LTB4 by HTRF
Description: The compounds of the invention are additionally tested in a human whole blood (HWB) assay to determine their ability to inhibit the synthesis of LTB4 in a cellular system. Compounds are combined with heparinized human whole blood and incubated for 15 minutes at 37° C. Calcimycin (20 μM final, prepared in phosphate-buffered saline, pH 7.4) is then added and the mixture is incubated for another 30 minutes at 37° C. The samples are centrifuged for 5 min at low speed (1500×g) and the plasma layer is removed. Plasma LTB4 concentrations are then measured using an antibody-based homogenous time-resolved fluorescence method (CisBio, Bedford, Mass.). In general, the preferred potency range (IC50) of compounds in the HWB assay is between 10 nM to 10 μM, the more preferred potency range is 10 nM to 1 μM, and the most preferred potency range is 10 nM to 100 nM.

SMILES | IC50 [nM]
CC(=O)N1CCN(Cc2ccc([C@H]3COc4cccnc4O3)cc2)CC1 [Example 185, 1-(4-{4-[(3S)-2,3-dihydro[1,4]dioxin[2,3-b]pyridin-3-yl]benzyl}piperazin-1-yl)ethanone] | 92
CC(=O)N[C@H]1C[C@H]2CC[C@@H](C1)N2Cc1ccc([C@H]2COc3cccnc3O2)cc1 [Example 278, N-{(endo)-8-[(S)-4-(2,3-Dihydro-[1,4]dioxino[2,3-b]pyridin-3-yl)-benzyl]-8-aza-bicyclo[3.2.1]oct-3-yl}-acetamide] | 73
OC1(c2ccccc2)CCN(Cc2ccc([C@H]3COc4cccnc4O3)cc2)CC1 [Example 269, 1-[(S)-4-(2,3-Dihydro-[1,4]dioxino[2,3-b]pyridin-3-yl)-benzyl]-4-phenyl-piperidin-4-ol] | 36
CC(C)(O)CNC(=O)[C@H]1[C@@H]2CN(Cc3ccc([C@H]4COc5cccnc5O4)cc3)C[C@@H]21 [Example 251, [(1α,5α,6α)-3-[(S)-4-(2,3-Dihydro-[1,4]dioxino[2,3-b]pyridin-3-yl)-benzyl]-3-aza-bicyclo[3.1.0]hexane-6-carboxylic acid (2-hydroxy-2-methyl-propyl)]-amide] | 63
CN(Cc1ccc([C@H]2COc3cccnc3O2)cc1)C1CCS(=O)(=O)C1 (stereo partly drawn) [Example 280, [(S)-4-(2,3-Dihydro-[1,4]dioxino[2,3-b]pyridin-3-yl)-benzyl]-(1,1-dioxo-tetrahydro-1lambda-6-thiophen-3-yl)-methyl-amine] | 230
O=C(O)[C@@H]1CCN(Cc2ccc([C@H]3COc4ccccc4O3)cc2)C1 [Example 214, (3R)-1-{4-[(2S)-2,3-dihydro-1,4-benzodioxin-2-yl]benzyl}pyrrolidine-3-carboxylic acid] | 169
